Source: patent US8580790B2, “(Heterocycle/condensed piperidine)-(piperazinyl)-1-alkanone or (heterocycle/condensed pyrrolidine)-(piperazinyl)-1-alkanone derivatives and use thereof as p75 inhibitors” (Sanofi, priority 2009, dated 2013)
Where a name gives a salt, the structure may show the parent alone.

Columns and labels:
[1] = target: T1, human p75^NTR receptor (Homo sapiens, UniProt P08138); assay: Dimerization of the p75NTR receptor independently of its ligand (soluble p75NTR-alkaline phosphatase binding to SK-N-BE Bep 75 cells); format: cell-based; details: soluble p75NTR-alkaline phosphatase 10 nM, 1 h preincubation at 37° C.
T1 construct: the whole form of the human p75^NTR receptor; expressed in transfected cells; the soluble AP fusion comes from the supernatant of transiently transfected HEK293 cells
T1 sequence (P08138 29-427): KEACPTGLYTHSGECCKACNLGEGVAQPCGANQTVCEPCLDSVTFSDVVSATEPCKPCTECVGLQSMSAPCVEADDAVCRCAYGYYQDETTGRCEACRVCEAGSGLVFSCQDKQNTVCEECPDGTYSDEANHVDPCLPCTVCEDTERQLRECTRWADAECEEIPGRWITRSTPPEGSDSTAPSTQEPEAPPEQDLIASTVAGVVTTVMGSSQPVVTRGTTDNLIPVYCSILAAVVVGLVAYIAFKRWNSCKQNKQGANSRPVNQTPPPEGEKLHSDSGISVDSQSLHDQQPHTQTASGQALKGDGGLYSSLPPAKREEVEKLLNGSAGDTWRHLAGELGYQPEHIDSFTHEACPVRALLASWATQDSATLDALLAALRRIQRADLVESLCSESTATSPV
Description: (§1) The SK-N-BE parent strain (human neuroblastoma) and the Bep 75 clone, stably expressing the whole form of the human p75^NTR receptor (SK-N-BE Bep 75) are cultured conventionally in an RPMI culture medium containing FCS (5%), sodium pyruvate (1 mM) and glutamine (4 mM). For the SK-N-BE Bep 75 cells, hygromycin ([…] of medium) is added as selection agent.
Study of the dimerization of the p75^NTR receptor independently of its ligand.
The p75^NTR receptor dimerization study is carried out on a cell suspension of the SK-N-BE Bep 75 strain. The cells (2.5×10^4 cells/well) are placed in wells (96-well plate) for 24 h, and then preincubated for 1 h at 37° C. in the presence or absence of the compounds according to the invention. Supernatant is then added, this supernatant being derived from the culture of HEK293 human cells of renal origin expressing, after 48 h of transfection, and secreting a soluble form of the p75^NTR receptor (extracellular part of the receptor) coupled to an alkaline phosphatase, at the final concentration of 10 nM. The quantification of the specific binding of the soluble p75^NTR receptor to the receptor present on SK-N-BE Bep 75 cells is determined by measuring the alkaline phosphatase enzyme activity after incubation of the cells for 1 hour at 37° C. in the presence of the supernatant. After filtration and transfer of the filters into 24-well plates, the alkaline phosphatase activity is determined by adding CDP-Star chemiluminescent substrate (ready-to-use, Roche). The concentrations inhibiting 50% (Cl50) of the dimerization of the p75^NTR receptor, of the compounds according to the invention, are low and range from 10^−6 to 10^−11M.

[2] = system: human neuroblastoma strains SH-SY-5Y and SK-N-BE Bep 75; assay: Measurement of NGF-induced apoptosis (cell death detection ELISA); format: cell-based; details: SH-SY5Y, NGF 10 ng/ml, 48 h (SH-SY-5Y) or 24 h (SK-N-BE Bep 75), read-out: IC50 of inhibitory activity on NGF-induced apoptosis
Description: The SH-SY-5Y strain (human neuroblastoma) is cultured conventionally in a DMEM culture medium (Dulbecco's Modified Eagle's Medium) (Gibco BRL, France) containing FCS (5%) (foetal calf serum) (Boehringer Mannheim, Germany), sodium pyruvate (1 mM) and glutamine (4 mM) in culture flasks coated with collagen (Becton Dickinson, France).
as §1
The cells (human neuroblastoma strains SH-SY-5Y and SK-N-BE Bep 75) are placed in 35 mm diameter Petri dishes (Biocoat collagen I, (10^5 cells/well)) in an appropriate culture medium containing 5% of FCS, for 24 h. […] The degrees of apoptosis are measured 48 hours after the treatments in the case of the SH-SY-5Y strain, and 24 hours after in the case of the SK-N-BE Bep 75 strain, by quantification of the DNA fragment-associated cytoplasmic histones (cell death detection ELISA, Boehringer Mannheim, Germany). The degrees of apoptosis are expressed as amount of oligonucleosomes/10^5 cells. […]

| melting point | SMILES | IC50 [1] | IC50 [2] |
| --- | --- | --- | --- |
| – | O=C(CN1CCN(c2ccc(C(F)(F)F)cn2)C(=O)C1)N1CCc2nc(-c3ccccc3)sc2C1 [compound 11, 4-[2-oxo-2-(2-phenyl-6,7-dihydro-4H-thiazolo[5,4-c]pyridin-5-yl)ethyl]-1-(5-trifluoromethylpyridin-2-yl)piperazin-2-one] | 1.9 nM | 4.46 nM |
| – | C[C@@H]1CN(c2ccc(C(F)(F)F)cn2)C[C@H](C)N1CC(=O)N1CCc2nc(-c3ccccc3)sc2C1 [compound 9, 2-[(2S,6R)-2,6-dimethyl-4-(5-trifluoromethylpyridin-2-yl)piperazin-1-yl]-1-(2-phenyl-6,7-dihydro-4H-thiazolo[5,4-c]pyridin-5-yl)ethanone] | 0.73 nM | 0.72 nM |
| 94 to 97 °C | C[C@@H]1CN(c2ncc(C(=O)O)cn2)C[C@H](C)N1CC(=O)N1CCc2nn(-c3ccccc3)cc2C1 [compound 75, 2-{(3S,5R)-3,5-dimethyl-4-[2-oxo-2-(2-phenyl-2,4,6,7-tetrahydropyrazolo[4,3-c]pyridin-5-yl)ethyl]piperazin-1-yl}pyrimidine-5-carboxylic acid] | – | – |
| 165 to 168 °C | O=C(CN1CC2CCC(C1)N2c1cccnc1)N1CCc2nn(-c3ccccc3)cc2C1 | – | – |
| 210 to 212 °C | COC(=O)c1ccc(N2C[C@@H](C)N(CC(=O)N3CCc4nn(-c5ccccc5)cc4C3)[C@@H](C)C2)nc1 (as salt: HCl) [compound 23, 6-{(3S,5R)-3,5-dimethyl-4-[2-oxo-2-(2-phenyl-2,4,6,7-tetrahydropyrazolo[4,3-c]pyridin-5-yl)ethyl]piperazin-1-yl}nicotinic acid methyl ester] | – | – |
| 193 °C | O=C(CN1CC2CCC(C1)N2c1ncc(F)cn1)N1CCc2nc(-c3ccccc3)oc2C1 | – | – |
| 189 to 192 °C | C[C@@H]1CN(c2ccc(C(F)(F)F)cn2)C[C@H](C)N1CC(=O)N1CCc2nc(-c3ccccc3)[nH]c2C1 [compound 110, 2-[(2S,6R)-2,6-dimethyl-4-(5-trifluoromethylpyridin-2-yl)piperazin-1-yl]-1-(2-phenyl-3,4,6,7-tetrahydroimidazo[4,5-c]pyridin-5-yl)ethanone] | – | – |
| 165 to 167 °C | O=C(CN1CC2CCC(C1)N2c1ncc(F)cn1)N1CCc2cc(-c3ccccc3)oc2C1 | – | – |
| 151 to 152 °C | O=C(CN1CC2CCC(C1)N2c1ncc(F)cn1)N1CCc2c(cnn2-c2ccc(F)cc2)C1 | – | – |
| 170 to 171 °C | O=C(CN1CC2CCC(C1)N2c1ccc(C(F)(F)F)cn1)N1CCc2nn(-c3ccccn3)cc2C1 | – | – |
| 142 to 145 °C | O=C(CN1CCCN(c2cccnc2)CC1)N1CCc2nc(-c3ccccc3)sc2C1 (as salt: HCl) [compound 30, 1-(2-phenyl-6,7-dihydro-4H-thiazolo[5,4-c]pyridin-5-yl)-2-(4-pyridin-3-yl-[1,4]diazepan-1-yl)ethanone] | – | – |
| 252 to 253 °C | COC(=O)c1ccc(N2C3CCC2CN(CC(=O)N2Cc4nc(-c5ccccc5)sc4C2)C3)nc1 | – | – |
| 156 to 159 °C | C[C@@H]1CN(CC(=O)N2CCc3nn(-c4ccccc4)cc3C2)[C@@H](C)CN1c1ccc(C#N)cn1 [compound 52, 6-{(2R,5S)-2,5-dimethyl-4-[2-oxo-2-(2-phenyl-2,4,6,7-tetrahydropyrazolo[4,3-c]pyridin-5-yl)ethyl]piperazin-1-yl}nicotinonitrile] | – | – |
| 147 to 149 °C | Cn1cc2c(n1)CCN(C(=O)CN1CC3CCC(C1)N3c1ncc(F)cn1)C2 | – | – |
| 140 to 141 °C | O=C(CN1CC2CC1CN2c1ccc(C(F)(F)F)nn1)N1CCc2nn(-c3ccc(C(F)(F)F)cn3)cc2C1 (stereo not drawn) [compound 107, 2-[5-(6-trifluoromethylpyridazin-3-yl)-2,5-diazabicyclo[2.2.1]hept-2-yl]-1-[2-(5-trifluoromethylpyridin-2-yl)-2,4,6,7-tetrahydropyrazolo[4,3-c]pyridin-5-yl]ethanone] | – | – |

| SMILES | melting point | IC50 [1] | IC50 [2] |
| --- | --- | --- | --- |
| O=C(O)c1ccc(N2C3CCC2CN(CC(=O)N2CCc4nn(-c5ccccc5)cc4C2)C3)nc1 [compound 24, 6-{3-[2-oxo-2-(2-phenyl-2,4,6,7-tetrahydropyrazolo[4,3-c]pyridin-5-yl)ethyl]-3,8-diazabicyclo[3.2.1]oct-8-yl}nicotinic acid] | 202 to 206 °C | 1.55 nM | – |
| COC(=O)c1ccc(N2C3CCC2CN(CC(=O)N2CCc4nn(-c5ccccc5)cc4C2)C3)nc1 [compound 19, 6-{3-[2-oxo-2-(2-phenyl-2,4,6,7-tetrahydropyrazolo[4,3-c]pyridin-5-yl)ethyl]-3,8-diazabicyclo[3.2.1]oct-8-yl}nicotinic acid methyl ester] | 204 to 205 °C | 14 nM | – |
